# In PubChem BioAssay AID248 (DTP/NCI, 2004):
# Values joined by “and” are separate entries in the source; they are usually repeats but may differ in a detail not shown here. Equal entries are not always repeated. Inconclusive results and toxic doses are left out.
# System: L1210 leukemia ip in BDF1 mice, survival T/C
# Assay: NCI In Vivo Anticancer Drug Screen. Data for tumor model L1210 Leukemia (intraperitoneal) in B6D2F1 (BDF1) mice
# Details: endpoint: mean survival time, higher = longer survival
# Summary of the method: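 In this screen, tumor-bearing mice given compound are compared to those given vehicle, and their survival values are reported as a treated-to-control quotient.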
# [1] = dose: 100.0 mg/kg/injection, schedule: Q01DX001 (ip), vehicle: saline
# [2] = dose: 200.0 mg/kg/injection, schedule: Q01DX001 (ip), vehicle: saline
# [3] = dose: 400.0 mg/kg/injection, schedule: Q01DX001 (ip), vehicle: saline
# [4] = dose: 100.0 mg/kg/injection, schedule: Q01DX001 (ip), vehicle: carboxymethylcellulose (CMC)
# [5] = dose: 200.0 mg/kg/injection, schedule: Q01DX001 (ip), vehicle: carboxymethylcellulose (CMC)
# [6] = dose: 100.0 mg/kg/injection, schedule: Q01DX009 (ip), vehicle: saline with Tween-80
# [7] = dose: 200.0 mg/kg/injection, schedule: Q01DX009 (ip), vehicle: saline with Tween-80
# [8] = dose: 400.0 mg/kg/injection, schedule: Q01DX009 (ip), vehicle: saline with Tween-80
# [9] = dose: 25.0 mg/kg/injection, schedule: Q04DX003 (ip), vehicle: Klucel (hydroxypropylcellulose) (HPC)
# [10] = dose: 50.0 mg/kg/injection, schedule: Q04DX003 (ip), vehicle: Klucel (hydroxypropylcellulose) (HPC)
# [11] = dose: 100.0 mg/kg/injection, schedule: Q04DX003 (ip), vehicle: Klucel (hydroxypropylcellulose) (HPC)
# [12] = dose: 100.0 mg/kg/injection, schedule: Q01DX009 (ip), vehicle: Klucel (hydroxypropylcellulose) (HPC)
# [13] = dose: 200.0 mg/kg/injection, schedule: Q01DX009 (ip), vehicle: Klucel (hydroxypropylcellulose) (HPC)
# [14] = dose: 200.0 mg/kg/injection, schedule: Q04DX003 (ip), vehicle: Klucel (hydroxypropylcellulose) (HPC)
# [15] = dose: 400.0 mg/kg/injection, schedule: Q01DX009 (ip), vehicle: Klucel (hydroxypropylcellulose) (HPC)
# [16] = dose: 400.0 mg/kg/injection, schedule: Q04DX003 (ip), vehicle: Klucel (hydroxypropylcellulose) (HPC)
structure (smiles),measurement,setting,value
Cc1c(NC(=O)Nc2ccccc2F)c(=O)n(-c2ccccc2)n1C,T/C,[1],101 % of control
same,T/C,"dose: 100.0 mg/kg/injection, schedule: Q01DX009 (ip), vehicle: acetone",86 % of control
same,T/C,"dose: 100.0 mg/kg/injection, schedule: Q04DX003 (ip), vehicle: saline",112 % of control
same,T/C,[2],95 % of control and 91 % of control
same,T/C,"dose: 200.0 mg/kg/injection, schedule: Q04DX003 (ip), vehicle: saline",91 % of control
same,T/C,[3],97 % of control and 98 % of control
same,T/C,"dose: 400.0 mg/kg/injection, schedule: Q04DX003 (ip), vehicle: saline",95 % of control
CN(C)[C@@H]1C(=O)C(C(=O)NCNC2(C(=O)O)CCCC2)=C(O)[C@@]2(O)C(=O)C3=C(O)c4c(O)cccc4[C@@](C)(O)[C@H]3C[C@@H]12,T/C,"dose: 62.0 mg/kg/injection, schedule: Q01DX Z (ip), vehicle: saline",95 % of control
same,T/C,"dose: 125.0 mg/kg/injection, schedule: Q01DX Z (ip), vehicle: saline",98 % of control
same,T/C,"dose: 250.0 mg/kg/injection, schedule: Q01DX Z (ip), vehicle: saline",114 % of control
O=C(O)c1ccc([N+](=O)[O-])cc1F,T/C,[4],101 % of control
same,T/C,"dose: 100.0 mg/kg/injection, schedule: Q01DX009 (ip), vehicle: carboxymethylcellulose (CMC)",96 % of control and 116 % of control
same,T/C,"dose: 100.0 mg/kg/injection, schedule: Q04DX002 (ip), vehicle: Klucel (hydroxypropylcellulose) (HPC)",90 % of control
same,T/C,"dose: 100.0 mg/kg/injection, schedule: Q04DX002 (ip), vehicle: carboxymethylcellulose (CMC)",102 % of control and 107 % of control
same,T/C,"dose: 100.0 mg/kg/injection, schedule: Q04DX003 (ip), vehicle: carboxymethylcellulose (CMC)",97 % of control
same,T/C,[5],99 % of control
same,T/C,"dose: 200.0 mg/kg/injection, schedule: Q01DX009 (ip), vehicle: carboxymethylcellulose (CMC)",107 % of control and 89 % of control
same,T/C,"dose: 200.0 mg/kg/injection, schedule: Q04DX002 (ip), vehicle: Klucel (hydroxypropylcellulose) (HPC)",104 % of control
same,T/C,"dose: 200.0 mg/kg/injection, schedule: Q04DX002 (ip), vehicle: carboxymethylcellulose (CMC)",99 % of control and 110 % of control
same,T/C,"dose: 200.0 mg/kg/injection, schedule: Q04DX003 (ip), vehicle: carboxymethylcellulose (CMC)",100 % of control
same,T/C,"dose: 400.0 mg/kg/injection, schedule: Q01DX009 (ip), vehicle: carboxymethylcellulose (CMC)",89 % of control
same,T/C,"dose: 400.0 mg/kg/injection, schedule: Q04DX002 (ip), vehicle: Klucel (hydroxypropylcellulose) (HPC)",93 % of control
same,T/C,"dose: 400.0 mg/kg/injection, schedule: Q04DX002 (ip), vehicle: carboxymethylcellulose (CMC)",100 % of control and 86 % of control
O=S(c1ccccc1)c1ccc2cccccc1-2 (stereo not drawn),T/C,[4],91 % of control
same,T/C,[5],94 % of control
same,T/C,"dose: 400.0 mg/kg/injection, schedule: Q01DX001 (ip), vehicle: carboxymethylcellulose (CMC)",100 % of control
O=NN(CCCl)C(=O)NC1Cc2ccccc2C1,T/C,"dose: 8.0 mg/kg/injection, schedule: Q01DX001 (ip), vehicle: other",109 % of control
same,T/C,"dose: 62.0 mg/kg/injection, schedule: Q01DX001 (ip), vehicle: other",239 % of control
same,T/C,"dose: 125.0 mg/kg/injection, schedule: Q01DX001 (ip), vehicle: other",264 % of control
same,T/C,"dose: 250.0 mg/kg/injection, schedule: Q01DX001 (ip), vehicle: other",112 % of control
same,T/C,"dose: 500.0 mg/kg/injection, schedule: Q01DX001 (ip), vehicle: other",86 % of control
Cc1cccc(C)c1NC(=O)C(C)C,T/C,[6],94 % of control
same,T/C,"dose: 100.0 mg/kg/injection, schedule: Q04DX003 (ip), vehicle: saline with Tween-80",98 % of control
same,T/C,[7],95 % of control
same,T/C,"dose: 200.0 mg/kg/injection, schedule: Q04DX003 (ip), vehicle: saline with Tween-80",98 % of control
same,T/C,[8],90 % of control
same,T/C,"dose: 400.0 mg/kg/injection, schedule: Q04DX003 (ip), vehicle: saline with Tween-80",96 % of control
O=C(O)C(F)(F)C(F)(F)C(F)(F)F.[Ag],T/C,"dose: 10.0 mg/kg/injection, schedule: Q01DX001 (ip), vehicle: acetone",101 % of control
same,T/C,"dose: 20.0 mg/kg/injection, schedule: Q01DX001 (ip), vehicle: acetone",96 % of control
same,T/C,"dose: 40.0 mg/kg/injection, schedule: Q01DX001 (ip), vehicle: acetone",109 % of control
CCOC(=O)C1(C(=O)OCC)C(C)CC2Nc3cc4c(cc3C(=O)N21)OCO4 (stereo not drawn),T/C,[9],94 % of control
same,T/C,[10],101 % of control
same,T/C,[11],97 % of control
OC(/C=C/C(O)c1ccccc1)c1ccccc1 (stereo not drawn),T/C,"dose: 12.5 mg/kg/injection, schedule: Q01DX009 (ip), vehicle: Klucel (hydroxypropylcellulose) (HPC)",97 % of control
same,T/C,"dose: 12.5 mg/kg/injection, schedule: Q04DX003 (ip), vehicle: Klucel (hydroxypropylcellulose) (HPC)",95 % of control
same,T/C,"dose: 25.0 mg/kg/injection, schedule: Q01DX009 (ip), vehicle: Klucel (hydroxypropylcellulose) (HPC)",98 % of control
same,T/C,[9],100 % of control
same,T/C,"dose: 50.0 mg/kg/injection, schedule: Q01DX009 (ip), vehicle: Klucel (hydroxypropylcellulose) (HPC)",98 % of control
same,T/C,[10],94 % of control
CC(=O)C(C)(C)/C(C)=C/C(=O)O,T/C,[12],95 % of control
same,T/C,[11],100 % of control
same,T/C,[13],95 % of control
same,T/C,[14],100 % of control
same,T/C,[15],98 % of control
same,T/C,[16],97 % of control
CN(N=O)C(=O)NCCSSCCNC(=O)N(C)N=O,T/C,"dose: 5.0 mg/kg/injection, schedule: Q01DX011 (ip), vehicle: carboxymethylcellulose (CMC)",107 % of control
same,T/C,"dose: 5.0 mg/kg/injection, schedule: Q01DX Z (ip), vehicle: carboxymethylcellulose (CMC)",104 % of control
same,T/C,"dose: 10.0 mg/kg/injection, schedule: Q01DX011 (ip), vehicle: carboxymethylcellulose (CMC)",102 % of control
same,T/C,"dose: 10.0 mg/kg/injection, schedule: Q01DX Z (ip), vehicle: carboxymethylcellulose (CMC)",104 % of control
same,T/C,"dose: 20.0 mg/kg/injection, schedule: Q01DX011 (ip), vehicle: carboxymethylcellulose (CMC)",112 % of control
same,T/C,"dose: 20.0 mg/kg/injection, schedule: Q01DX Z (ip), vehicle: carboxymethylcellulose (CMC)",112 % of control
same,T/C,"dose: 40.0 mg/kg/injection, schedule: Q01DX011 (ip), vehicle: carboxymethylcellulose (CMC)",161 % of control
same,T/C,"dose: 40.0 mg/kg/injection, schedule: Q01DX Z (ip), vehicle: carboxymethylcellulose (CMC)",119 % of control
O=NN(Cc1ccccc1)C(c1ccccc1)S(=O)(=O)O (stereo not drawn),T/C,"dose: 75.0 mg/kg/injection, schedule: Q01DX009 (ip), vehicle: saline",87 % of control
same,T/C,[1],112 % of control
same,T/C,"dose: 150.0 mg/kg/injection, schedule: Q01DX009 (ip), vehicle: saline",87 % of control
same,T/C,[2],100 % of control
same,T/C,"dose: 300.0 mg/kg/injection, schedule: Q01DX009 (ip), vehicle: saline",97 % of control
same,T/C,[3],93 % of control
CCCCCC(CN(C)C)C(=O)/C=C/c1ccc(Cl)c(Cl)c1 (stereo not drawn),T/C,"dose: 12.5 mg/kg/injection, schedule: Q04DX003 (ip), vehicle: acetone",95 % of control
same,T/C,"dose: 25.0 mg/kg/injection, schedule: Q04DX003 (ip), vehicle: acetone",92 % of control
CCCCNC(=O)Nc1ccccc1,T/C,[11],100 % of control
same,T/C,[14],112 % of control
same,T/C,[16],96 % of control
N#CCC(C(=O)c1cccnc1)c1ccccc1 (stereo not drawn),T/C,"dose: 100.0 mg/kg/injection, schedule: Q04DX002 (ip), vehicle: gum acacia",104 % of control
same,T/C,"dose: 200.0 mg/kg/injection, schedule: Q04DX002 (ip), vehicle: gum acacia",87 % of control
CC(C)(C)N=Cc1ccccc1O.CC(C)(C)N=Cc1ccccc1O.[Cu],T/C,"dose: 6.25 mg/kg/injection, schedule: Q04DX003 (ip), vehicle: saline with Tween-80",94 % of control
same,T/C,"dose: 12.5 mg/kg/injection, schedule: Q04DX003 (ip), vehicle: saline with Tween-80",104 % of control
same,T/C,"dose: 25.0 mg/kg/injection, schedule: Q04DX003 (ip), vehicle: saline with Tween-80",96 % of control
Cc1ccnc([N+](=O)[O-])c1,T/C,[6],103 % of control
same,T/C,[7],92 % of control
same,T/C,[8],106 % of control
O=C(COc1ccc(Cl)cc1)Nc1cccc(C(F)(F)F)c1,T/C,[12],96 % of control
same,T/C,[11],102 % of control
same,T/C,[13],89 % of control
same,T/C,[14],93 % of control
same,T/C,[15],91 % of control
same,T/C,[16],93 % of control
